Assay results: USRE44873E1, “Imidazole-5-carboxylic acid derivatives, the preparation method therefor and the uses thereof” (Salubris Asset Management Co., Ltd., priority 2006, dated 2014)

Key:
[1] = tested on: spontaneously hypertensive rat (SHR); test: Effect of lowering blood pressure in spontaneously hypertensive rats (administration through stomach fistula); type: in vivo; conditions: female SHR, 30 mg/kg through stomach fistula, recorded in 6 hours after administration; for Systolic blood pressure post-administration: first figure of pair; for Diastolic blood pressure post-administration: second figure of pair
Experimental: A female spontaneously hypertensive rat (SHR) is anaesthetize by abdominal cavity injection with diazepam of 5 mg/kg and ketamine hydrochloride of 50 mg/kg and its back is fixed. An artery conduit is inserted from the left of a femoral artery to a lower abdominal aorta, and then a stomach fistula treatment is operated. After 20-30 hours for postoperative recovery, the artery conduit is connected to a pressure transducer by a perfusion three-way tube. Blood pressure signals per pulse are transformed into biologic signals by the pressure transducer, and systolic blood pressures and diastolic blood pressures per pulse are real-time recorded by a computer. After the SHR is connected to the computer system for 4-5 hours, blood pressures and palpitation intervals in one hour are recorded as normal comparing data before administration. Afterwards, the medicine with a dosage of 30 mg/kg and a volume of 2 ml/kg is administrated through the stomach fistula. Blood pressures in 6 hours after administration are continuously recorded to observe change of systolic blood pressure and diastolic blood pressure.
A female spontaneously hypertensive rat (SHR) is anaesthetize by abdominal cavity injection with diazepam of 5 mg/kg and ketamine hydrochloride of 50 mg/kg and its back is fixed. An artery conduit is inserted from the left of a femoral artery to a lower abdominal aorta, and than a stomach fistula treatment is operated. After 20-30 hours for postoperative recovery, the artery conduit is connected to it pressure transducer by a perfusion three-way tube. Blood pressure signals per pulse are transformed into biologic signals by pressure transducer, and systolic blood pressures and diastolic blood pressures per pulse are real-time recorded by a computer. When the SHR is connected to the computer system for 4-5 hours, blood pressures and palpitation intervals in one hour are recorded as normal comparing data before administration. Afterwards, it is adminstrated with a dosage of 30 mg/kg and a volume of 2 ml/kg through the stomach fistula. Blood pressures in 6 hours after administration are continuously recorded to observe changes of systolic blood pressure and diastolic blood pressure.

in vivo = conditions: both, Kunming, mouse, po
Experimental: (§1) 20 Kunming mice with weight of 18-22 g are randomly divided into two groups, each group including 10 ones with two identical halves for male and female. The mice are fasted for 6 hours, and then the two groups of mice are administrated by intragastric infusion with the compounds of the present invention in the amount of 10 g/kg, 5 g/kg, 2 g/kg. The administration volume is 0.8 ml/20 g, and the solvent is 0.5% CMC-Na. Observe and accumulate the number of dead animals during 14 days after administration (one administration) to calculate LD50.

[2] = Efficiency of active metabolism conversion (EXP3174 in blood plasma by HPLC after oral dosing); type: in vivo; conditions: SD rats, 20 mg/kg oral intragastric infusion, blood at 3 hours
Experimental: The SD rats are orally administrated by intragastric infusion with a dosage of 20 mg/kg. Blood samples are collected from an orbit at the time of 3 hours since the administration. The blood samples freely drop into centrifuge tubes. The sampling amount of blood is 0.3˜0.5 ml, and the blood plasma is centrifugalized. After the sample is pre-treated, the blood is analyzed by using HPLC method to get the amount of EXP3174 in the blood plasma. Based on the molar ratio of the amount of EXP3174 and the amount of administration dosage, a ratio of the experiment compounds being converted into active metabolite in vivo may be calculated.

Kunming mice = test: Evaluation of toxicity (acute LD50, intragastric); conditions: one intragastric administration, 14 days observation, 0.5% CMC-Na
Experimental: as §1

[3] = relative to EXP3174; cited from earlier work
[4] = cited from earlier work

| SMILES | Systolic blood pressure post-administration [1] [mmHg] | Diastolic blood pressure post-administration [1] [mmHg] | LD50 at 14 days (in vivo) [mg/kg] | further results |
| --- | --- | --- | --- | --- |
| CCCCc1nc(Cl)c(C(=O)OC2OC(=O)c3ccccc32)n1Cc1ccc(-c2ccccc2-c2nnn[nH]2)cc1 (racemic) [Compound 2, (+/−)2-butyl-4-chloro-1-[2′-(1H-tetrazol-5-yl)1,1′-biphenyl-methyl]imidazole-5-carboxylic acid, 2-[C]-benzofuranonyl ester] | 155 | 105 | – | melting point: 120.6 to 124.6 °C |
| CCCCc1nc(Cl)c(C(=O)OC(C)OC(=O)OC2CCCCC2)n1Cc1ccc(-c2ccccc2-c2nnn[nH]2)cc1 (racemic) [Compound 7, (+/−)2-butyl-4-chloro-1-[2′-(1H-tetrazol-5-yl)1,1′-biphenyl-methyl]imidazole-5-carboxylic acid, 1-[(cyclohexyloxycarbonyl)oxy]ethyl ester] | 157 | 103 | – | – |
| CCCCc1nc(Cl)c(C(=O)OCC)n1Cc1ccc(-c2ccccc2-c2nnn[nH]2)cc1 [Compound 1, 2-butyl-4-chloro-1-[2′-(1H-tetrazol-5-yl)1,1′-biphenyl-methyl]imidazole-5-carboxylic acid, ethyl ester] | 159 | 103 | – | – |
| CCCCc1nc(Cl)c(C(=O)OCc2oc(=O)oc2C)n1Cc1ccc(-c2ccccc2-c2nnn[nH]2)cc1 [Compound 3, 2-butyl-4-chloro-1-[2′-(1H-tetrazol-5-yl)1,1′-biphenyl-methyl]imidazole-5-carboxylic acid, cyclic 2,3-carbonate] | 158 | 102 | – | – |
| CCCCc1nc(Cl)c(C(=O)OCOC(=O)C(C)(C)C)n1Cc1ccc(-c2ccccc2-c2nnn[nH]2)cc1 [Compound 4, 2-butyl-4-chloro-1-[2′-(1H-tetrazol-5-yl)1,1′-biphenyl-methyl]imidazole-5-carboxylic acid, pivaloyloxymethyl ester] | 159 | 102 | – | – |
| CCCCc1nc(Cl)c(C(=O)OC(C)OC(=O)OC(C)C)n1Cc1ccc(-c2ccccc2-c2nnn[nH]2)cc1 (stereo not drawn) [Compound 5, 2-butyl-4-chloro-1-[2′-(1H-tetrazol-5-yl)1,1′-biphenyl-methyl]imidazole-5-carboxylic acid, 1-[(isopropoxycarbonyl)oxy]ethyl ester] | 157 | 101 | – | – |
| CCCCc1nc(Cl)c(C(=O)OC(C)OC(=O)OC(C)(C)C)n1Cc1ccc(-c2ccccc2-c2nnn[nH]2)cc1 (stereo not drawn) [Compound 6, 2-butyl-4-chloro-1-[2′-(1H-tetrazol-5-yl)1,1′-biphenyl-methyl]imidazole-5-carboxylic acid, 1-[(tert-butoxycarbonyl)oxy]ethyl ester] | 159 | 103 | – | melting point: 60.5 to 62 °C |
| CCCCc1nc(Cl)c(C(=O)OCOC(=O)OC(C)C)n1Cc1ccc(-c2ccccc2-c2nnn[nH]2)cc1 [Compound 8, 2-butyl-4-chloro-1-[2′-(1H-tetrazol-5-yl)1,1′-biphenyl-methyl]imidazole-5-carboxylic acid, 1-[(isopropoxycarbonyl)oxy]methyl ester] | 156 | 101 | > 10000 | – |
| CCCCc1nc(Cl)c(C(=O)OCOC(=O)OCC)n1Cc1ccc(-c2ccccc2-c2nnn[nH]2)cc1 [Compound 9, 2-butyl-4-chloro-1-[2′-(1H-tetrazol-5-yl)1,1′-biphenyl-methyl]imidazole-5-carboxylic acid, 1-[(ethoxycarbonyl)oxy]methyl ester] | 159 | 104 | > 10000 | – |
| CCCCc1nc(Cl)c(C(=O)OCOC(=O)OC(C)(C)C)n1Cc1ccc(-c2ccccc2-c2nnn[nH]2)cc1 [Compound 10, 2-butyl-4-chloro-1-[2′-(1H-tetrazol-5-yl)1,1′-biphenyl-methyl]imidazole-5-carboxylic acid, 1-[(tert-butoxycarbonyl)oxy]methyl ester] | 158 | 103 | > 10000 | – |
| CCCCc1nc(Cl)c(C(=O)OC(C)OC(=O)OCC)n1Cc1ccc(-c2ccccc2-c2nn[nH]n2)cc1 (stereo not drawn) [HN-65021] | – | – | – | metabolism conversion ratio (molar ratio of EXP3174 in blood plasma to administered dosage) [2]: 1.5%; LD50 (Kunming mice): 5000 to 8000 mg/kg |
| CCCCc1nc(Cl)c(CO)n1Cc1ccc(-c2ccccc2-c2nn[nH]n2)cc1 [losartan potassium] | – | – | 2000 | Activity in reducing blood pressure as share of that of EXP3174 [3]: 3%; Share of losartan potassium metabolized in vivo to its active substance EXP3174 [4]: 14% |
